The results in this text go back to ChEMBL document CHEMBL1201862, “PubChem BioAssay data set” (2004).

Several values for one entry are separate records, joined by “and”; a condition that tells them apart may be missing. Equal entries are not always repeated.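 Tested at 5 concentrations; 48 h exposure; 96-well plates; endpoints linearly interpolated, else capped at highest concentration. The concentration for 50% growth inhibition is given as GI50.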 Activity calls are given as the source filed them. No stated cut-off is given here; in the data, active = GI50 up to about 1.1 µM and inactive = higher. Where a SMILES comes first, the peptide text is derived from it. The star is where a group is joined. Boc = CC(C)(C)OC(=O)*

What all share (assay): DTP human tumour cell line panel, 48 h
The subject of experiment [1] is ACHN.
Experiment [2] has as its system BT-549.
For experiment [3], the system named is HCT-116.
In experiment [4] the test system is HCT-15.
Experiment [5] relates to HOP-62.
Experiment [6] deals with IGROV-1.
Experiment [7] deals with KM12.
Experiment [8] has as its system MCF7.
The test system of experiment [9] is MDA-MB-435.
Experiment [10] relates to NCI-H226.
Experiment [11] concerns NCI-H460.
Experiment [12] relates to NCI-H522.
The subject of experiment [13] is OVCAR-8.
Experiment [14] relates to SF-295.
The subject of experiment [15] is SK-MEL-28.
Experiment [16] relates to SK-MEL-2.
For experiment [17], the system named is SK-MEL-5.
The subject of experiment [18] is SN12C.
Experiment [19] deals with EKVX.

In the case of `CCC1NC(=O)C(NC(=O)c2ncccc2O)C(C)OC(=O)C(c2ccccc2)NC(=O)C2CC(=O)CCN2C(=O)C(Cc2ccccc2)N(C)C(=O)C2CCCN2C1=O` (configuration not stated), the GI50 in experiment [1] was > 100 µM (inactive); in experiment [2], > 100 µM (inactive); in experiment [3] it was > 100 µM (inactive); in [4], above 100 µM; in experiment [5], > 100 µM (inactive); in experiment [6], > 100 µM (inactive). Further, the GI50 in experiment [7], in experiment [8], in experiment [9], in [10], in experiment [11] and in experiment [12] was > 100 µM (inactive) throughout. In addition, the GI50 in [13], in experiment [14], in [15], in [16], in experiment [17] and in experiment [18] was > 100 µM (inactive) each time.
For `CCOC(=O)CC(=O)Nc1cccc2nc[nH]c12`, the GI50 in [1] was > 100 µM (inactive); in experiment [2], > 100 µM (inactive); in [19] it was > 100 µM (inactive); in [3], > 100 µM (inactive); in experiment [4], above 100 µM; in [5], > 100 µM (inactive). Moreover, the GI50 was > 100 µM (inactive) in experiment [6]; 51.8 µM (inactive) in [7]; > 100 µM (inactive) in [8]; > 100 µM (inactive) in [9]; > 100 µM (inactive) in experiment [10]; > 100 µM (inactive) in experiment [11]. Besides, the GI50 in experiment [13], in experiment [14], in experiment [15], in experiment [16], in experiment [17] and in experiment [18] was > 100 µM (inactive) in each case.
For `CC(=O)OCC1OC(N2C(C)=C(C(C)=O)C(c3ccco3)C(C#N)=C2S)C(OC(C)=O)C(OC(C)=O)C1OC(C)=O` (configuration not stated), the GI50 was > 100 µM (inactive) in [1]; > 100 µM (inactive) in experiment [2]; > 100 µM (inactive) in experiment [3]; above 100 µM in experiment [4]; > 100 µM (inactive) in experiment [5]; > 100 µM (inactive) in experiment [6]. For the same molecule, the GI50 in experiment [7], in experiment [8], in experiment [9], in experiment [10], in experiment [11] and in [12] was > 100 µM (inactive) throughout. Besides, the GI50 in experiment [13], in experiment [14], in experiment [15], in experiment [16], in [17] and in [18] was > 100 µM (inactive) each time.
For the molecule `COc1ccc(C2SCC(=O)N2NC2=NC(=O)CC(=O)N2)cc1` (configuration not stated), the GI50 in experiment [1] is > 100 µM (inactive); in [2] it was > 100 µM (inactive); in [3] it was > 100 µM (inactive); in experiment [4], above 100 µM; in experiment [5], > 100 µM (inactive); in experiment [6] it was > 100 µM (inactive). Moreover, the GI50 in experiment [7], in [8], in experiment [9], in [10], in [11] and in [12] was > 100 µM (inactive) each time. For the same molecule, the GI50 in experiment [13], in experiment [14], in [15], in experiment [16], in [17] and in [18] was > 100 µM (inactive) throughout.
Turning to `CCc1ccccc1/N=N/C(=O)NNc1ccccc1CC`, the GI50 was 19.8 µM (inactive) in experiment [1]; 18.4 µM (inactive) in [2]; 15.3 µM (inactive) in experiment [3]; 18.5 µM in experiment [4]; 15.8 µM (inactive) in experiment [5]; 11 µM (inactive) in [6]. The GI50 in [8] was 19.2 µM (inactive); in [9], 24.4 µM (inactive); in experiment [10] it was 17.5 µM (inactive); in experiment [11], 18 µM (inactive); in experiment [12], 19.7 µM (inactive); in [13], 15.2 µM (inactive). The GI50 is 17.7 µM (inactive) in experiment [15], 17.5 µM (inactive) in experiment [16], 15 µM (inactive) in experiment [17] and 18.5 µM (inactive) in experiment [18].
Take `COc1ccc2c(c1)-c1c(c3cc(OC)ccc3n1CCN(C)C)CC2`: the GI50 in experiment [1] is 15.1 µM (inactive); in experiment [2], 13.9 µM (inactive); in [3], 12.1 µM (inactive); in experiment [4], 13.6 µM; in [5], 15.8 µM (inactive); in experiment [6] it was 12.1 µM (inactive). The GI50 in experiment [7] is 14 µM (inactive); in [8] it was 14.4 µM (inactive); in [9] it was 12.6 µM (inactive); in experiment [10], 13.4 µM (inactive); in experiment [11], 12.2 µM (inactive); in experiment [12], 17.9 µM (inactive). Further, the GI50 is 17.4 µM (inactive) in [13]; 17.8 µM (inactive) in [14]; 15.9 µM (inactive) in experiment [15]; 14.5 µM (inactive) in experiment [16]; 12.4 µM (inactive) in experiment [17]; 12.9 µM (inactive) in experiment [18].
Regarding `CC(=O)OC1COC(n2c(N)c(C#N)c(-c3ccccc3)c(C#N)c2=S)C(OC(C)=O)C1OC(C)=O` (configuration not stated), the GI50 is 45.7 µM (inactive) and 71.4 µM (inactive) in experiment [1]; 25.6 µM (inactive) and 22.8 µM (inactive) in experiment [2]; 31.9 µM (inactive) and 29.9 µM (inactive) in [19]; 45.5 µM (inactive) and 37.8 µM (inactive) in [3]; 52.6 µM and 72.6 µM in experiment [4]; > 100 µM (inactive) in experiment [5]. The GI50 is > 100 µM (inactive) and 68.5 µM (inactive) in experiment [6]; 67 µM (inactive) and 40.7 µM (inactive) in [7]; 34.4 µM (inactive) and 29.9 µM (inactive) in experiment [8]; 27.8 µM (inactive) and 24.3 µM (inactive) in experiment [9]; 46.8 µM (inactive) and 65.9 µM (inactive) in experiment [11]; 38.5 µM (inactive) and 40.8 µM (inactive) in [12]. Besides, the GI50 in experiment [13] was 31.6 µM (inactive) and 56.8 µM (inactive); in experiment [14], > 100 µM (inactive); in experiment [15], 55.7 µM (inactive) and 36.6 µM (inactive); in experiment [16], 20 µM (inactive) and 27.2 µM (inactive); in experiment [17], 37.9 µM (inactive) and 30.3 µM (inactive); in [18], 48.1 µM (inactive) and 36.7 µM (inactive).
Turning to `COC1CC(OC2C(C)OC(OC3C(C)OC(OC4C(C)OC(O[C@H]5CC[C@@]6(C)C(=CC[C@]7(O)[C@@H]6C[C@@H](OC(=O)/C=C(\C)C(C)C)[C@@]6(C)[C@]7(O)CC[C@@]6(O)C(C)=O)C5)CC4OC)CC3OC)CC2OC)OC(C)C1O` (some centres not stated), the GI50 in experiment [1] is > 12.5 µM (inactive); in [2], > 12.5 µM (inactive); in experiment [19], > 12.5 µM (inactive); in [3], > 12.5 µM (inactive); in experiment [4], above 12.5 µM; in experiment [5] it was > 12.5 µM (inactive). Besides, the GI50 in experiment [6], in [7], in experiment [8], in [9], in experiment [10] and in experiment [12] was > 12.5 µM (inactive) in each case. In addition, the GI50 in experiment [13] is > 12.5 µM (inactive); in experiment [14] it was > 12.5 µM (inactive); in [16], > 12.5 µM (inactive); in experiment [17] it was 11.2 µM (inactive); in [18], > 12.5 µM (inactive).
Turning to `CSC1(CC(=O)N(C)C)C(=O)Nc2ccccc21` (configuration not stated), the GI50 in experiment [1] was > 100 µM (inactive); in experiment [2], > 100 µM (inactive); in experiment [19] it was > 100 µM (inactive); in [3] it was > 100 µM (inactive); in experiment [4], above 100 µM; in experiment [5], > 100 µM (inactive). For the same molecule, the GI50 in [6], in experiment [7], in experiment [8], in experiment [9], in [10] and in experiment [11] was > 100 µM (inactive) in each case. Further, the GI50 in experiment [14], in experiment [15], in experiment [16] and in [17] was > 100 µM (inactive) throughout.
Take `CC1=NN(c2nc(N)nc(CC#N)n2)C(C)(C)C1`: the GI50 is > 100 µM (inactive) in experiment [1]; > 100 µM (inactive) in experiment [2]; > 100 µM (inactive) in [19]; > 100 µM (inactive) in experiment [3]; above 100 µM in experiment [4]; > 100 µM (inactive) in experiment [5]. Further, the GI50 in experiment [6], in experiment [7], in experiment [8], in experiment [9], in experiment [10] and in [11] was > 100 µM (inactive) throughout. Also, the GI50 in experiment [13], in experiment [14], in [15], in [16] and in experiment [17] was > 100 µM (inactive) throughout.
With `COC(=O)C(C)NC(=O)C(CCSC)NC(=O)C(Cc1ccccc1)NC(=O)OC(C)(C)C` (stereo not drawn) (Boc-Phe-Met-Ala-OMe; configuration not given here), the GI50 was > 100 µM (inactive) in [1]; > 100 µM (inactive) in [2]; > 100 µM (inactive) in experiment [3]; above 100 µM in [4]; > 100 µM (inactive) in experiment [5]; > 100 µM (inactive) in [6]. Further, the GI50 in experiment [7], in [8], in [9], in [10], in experiment [11] and in experiment [12] was > 100 µM (inactive) throughout. Besides, the GI50 in experiment [13], in experiment [14], in experiment [15], in experiment [16], in experiment [17] and in experiment [18] was > 100 µM (inactive) in each case.
